These results are taken from article PMC9820279 (International Journal of Molecular Sciences, 2022).

For data set [1] the following is noted: cited from earlier work; for Detection in the lower well of the PAMPA-BBB model: ASFE extract compounds.
The mark [2] stands for this setting: matrix ASFE extract 24 µg/mL, 2 h incubation, n.d = not detected in lower compartment.
Setting [3] is: matrix ASFE extract 24 µg/mL, 4 h incubation, n.d = not detected in lower compartment.

Each structure is given as a SMILES string. Where two headings read alike, the source gives them in different places.

For the molecule `C[C@@H]1CCCC2=CC[C@@H]3[C@@H](C3(C)C)[C@]21C` [(-)-Aristolene], in the data set on HBMEC monolayer, the “Te % (SEM) 2 h” value was 39.7 (0.4) % and the “Te % (SEM) 4 h” value is given as 71.3 (1.6) %. Moreover, the “Detection in basolateral compartment (brain side) of HBMEC-BBB model” value with HBMEC monolayer (PLE100 extract) was “detected in the basolateral compartment”. In addition, the “Crossing of the PAMPA-BBB system” value in data set [1] (PLE100 extract compounds) was “could not cross”.
`O=C1c2c(O)cc(O)cc2O[C@H](c2ccc(O)cc2)[C@H]1O` [Aromadendrin]: in the data set with HBMEC monolayer (ASFE extract), the “Detection / transport to lower compartment (brain side) of HBMEC-BBB model” value is reported as “could reach the “brain side””. Besides, in the data set with HBMEC monolayer (setting [2]), the “Te % (SEM) 2 h” value was 76.2 (0.8) %. Moreover, the “Te % (SEM) 4 h” value in the data set with HBMEC monolayer (setting [3]) was 78.7 (0.7) %. Also, the “Detection in the lower well of the PAMPA-BBB model” value (“Detection in the lower well” below) in data set [1] was “not detected in the lower well”.
`O=C(/C=C/c1ccc(O)c(O)c1)O[C@@H](C(=O)O)[C@@H](O)C(=O)O` [Caftaric acid]: in the data set on HBMEC monolayer, the “Detection / transport to lower compartment (brain side) of HBMEC-BBB model” value is “could reach the “brain side””. Besides, the “Te % (SEM) 2 h” value in the data set on HBMEC monolayer (human, 2 h, 24 µg/mL) was 46.3 (3.6) %. The “Te % (SEM) 4 h” value in the data set on HBMEC monolayer (human, 4 h, 24 µg/mL) is 87.6 (3.5) %. The “Detection in the lower well” value in data set [1] is “not detected in the lower well”.
Take `O=c1oc2c(O)c(O)cc3c(=O)oc4c(O)c(O)cc1c4c23` [Ellagic acid]: the “Detection / transport to lower compartment (brain side) of HBMEC-BBB model” value in the data set with HBMEC monolayer was “could reach the “brain side””. Moreover, the “Te % (SEM) 2 h” value in the data set on HBMEC monolayer (human, 2 h, 24 µg/mL) is reported as 42.4 (1.6) %. The “Te % (SEM) 4 h” value in the data set with HBMEC monolayer (human, 4 h, 24 µg/mL) was 85.5 (2.5) %. Besides, the “Detection in the lower well” value in data set [1] is “not detected in the lower well”.
Turning to `COc1cc(/C=C/C(=O)O)ccc1O` [Ferulic acid], the “Detection / transport to lower compartment (brain side) of HBMEC-BBB model” value in the data set on HBMEC monolayer (ASFE extract) is recorded as “could reach the “brain side””. For the same molecule, the “Te % (SEM) 4 h” value with HBMEC monolayer (setting [3]) is 9.1 (0.3) %. The “Detection in the lower well” value in data set [1] is reported as “not detected in the lower well”.
Regarding `CC(CC(=O)C[C@@H](C)[C@H]1C[C@H](O)[C@@]2(C)C3=C(C(=O)C[C@]12C)[C@@]1(C)CC[C@H](O)C(C)(C)[C@@H]1CC3)C(=O)O` (some centres unmarked) [Ganolucidic acid B], the “Detection / transport to lower compartment (brain side) of HBMEC-BBB model” value in the data set on HBMEC monolayer (ASFE extract) is “could reach the “brain side””. Further, in the data set on HBMEC monolayer (setting [2]), the “Te % (SEM) 2 h” value is recorded as 28.4 (1.1) %. The “Te % (SEM) 4 h” value in the data set with HBMEC monolayer (setting [3]) is on record as 28.6 (1.5) %. For the same molecule, the “Detection in the lower well” value in data set [1] is recorded as “not detected in the lower well”.
On to `CC(C)=CCC/C(C)=C/CC/C(C)=C/CC/C(C)=C/CO` [Geranylgeraniol], for which, in the data set on HBMEC monolayer, the “Te % (SEM) 2 h” value is listed as 30.2 (1.1) % and the “Te % (SEM) 4 h” value is given as 56.6 (3.1) %.
The like results for `C=C1/C=C/[C@H](C(C)C)CC/C(C)=C/CC1` [Germacrene D] were, in that order, 3.2 (0.2) % and 6.6 (0.4) %.
In the case of `COc1ccc([C@@H]2CC(=O)c3c(O)cc(O)cc3O2)cc1O` [Hesperetin], in the data set on HBMEC monolayer (human, 2 h, 24 µg/mL), the “Te % (SEM) 2 h” value is listed as 65.5 (4.8) %. Also, the “Te % (SEM) 4 h” value with HBMEC monolayer (human, 4 h, 24 µg/mL) was 67.2 (3.6) %.
In the case of `CC1(C)C[C@H](O)C[C@]2(C)OC(=O)C=C12` [Isololiolide], in the data set on HBMEC monolayer, the “Te % (SEM) 2 h” value is 33.0 (2.6) % and the “Te % (SEM) 4 h” value is recorded as 61.4 (4.3) %.
As for `C=CC(C)(O)CCCC(C)CCCC(C)CCCC(C)C` (centres unmarked) [Isophytol], in the data set with HBMEC monolayer, the “Te % (SEM) 2 h” value is listed as 15.6 (1.0) % and the “Te % (SEM) 4 h” value is reported as 58.0 (1.7) %.
`O=c1c(O)c(-c2ccc(O)cc2)oc2cc(O)cc(O)c12` [Kaempferol]: in the data set with HBMEC monolayer (human, 2 h, 24 µg/mL), the “Te % (SEM) 2 h” value is listed as 31.5 (1.1) %. Further, the “Te % (SEM) 4 h” value in the data set with HBMEC monolayer (human, 4 h, 24 µg/mL) is reported as 36.5 (2.2) %.
Turning to `CC1=CC[C@@H](C(C)(C)O)CC1` [L-α-Terpineol], in the data set with HBMEC monolayer, the “Te % (SEM) 2 h” value is given as 17.6 (1.3) % and the “Te % (SEM) 4 h” value was 59.3 (0.4) %.
For the molecule `C=C(C)C1CCC2(C)OC2C1` (centres unmarked) [Limonene Epoxide], in the data set on HBMEC monolayer, the “Te % (SEM) 2 h” value is 19.5 (1.2) % and the “Te % (SEM) 4 h” value is 42.4 (3.2) %.
For the molecule `C=C(C)[C@H]1CC=C(C)CC1` [Limonene], in the data set with HBMEC monolayer, the “Te % (SEM) 2 h” value is 33.6 (2.3) % and the “Te % (SEM) 4 h” value was 59.3 (2.9) %.
`CC1(C)C[C@@H]2C3=CC[C@@H]4[C@@]5(C)CC[C@H](O)[C@@](C)(C=O)C5CC[C@@]4(C)[C@]3(C)CC[C@@]2(C(=O)O)C[C@@H]1O` (some centres unmarked) [Lucyin A]: the “Te % (SEM) 2 h” value in the data set with HBMEC monolayer (setting [2]) is given as 7.6 (0.5) %. Further, the “Te % (SEM) 4 h” value with HBMEC monolayer (setting [3]) was 25.3 (0.7) %.
Take `C=C(C)[C@@H]1CCC2=CC(=O)C[C@@H](C)[C@]2(C)C1` [Nootkatone]: in the data set on HBMEC monolayer (human), the “Te % (SEM) 2 h” value is recorded as 29.9 (0.9) % and the “Te % (SEM) 4 h” value is on record as 43.0 (3.4) %.
Take `CC(=O)OC(C)(C)[C@@H]1CC[C@@]2(C)CO[C@]3(C)C=CO[C@]23C1` [Phytuberin]: in the data set with HBMEC monolayer, the “Te % (SEM) 2 h” value is recorded as 33.4 (1.5) % and the “Te % (SEM) 4 h” value is given as 79.6 (2.2) %.
`O=C(O)c1ccc(O)c(O)c1` [Protocatechuic acid]: the “Te % (SEM) 2 h” value in the data set with HBMEC monolayer (setting [2]) is on record as 45.1 (3.8) %. Moreover, the “Te % (SEM) 4 h” value in the data set with HBMEC monolayer (setting [3]) was 71.7 (3.2) %.
The like results for `O=Cc1ccc(O)c(O)c1` [Protocatechuic aldehyde] were, in that order, 20.3 (1.5) % and 78.2 (5.7) %.
Turning to `O=C(O)[C@]1(O)C[C@@H](O)[C@@H](O)[C@H](O)C1` [Quinic acid], the “Te % (SEM) 2 h” value in the data set on HBMEC monolayer (human, 2 h, 30 µg/mL) is 20.1 (1.6) %. Further, the “Te % (SEM) 4 h” value in the data set with HBMEC monolayer (human, 4 h, 30 µg/mL) is 52.5 (1.4) %.
Consider `O=C(/C=C/c1ccc(O)c(O)c1)O[C@H](Cc1ccc(O)c(O)c1)C(=O)O` [Rosmarinic acid], for which, in the data set with HBMEC monolayer (human), the “Te % (SEM) 2 h” value is reported as 41.0 (2.3) % and the “Te % (SEM) 4 h” value is listed as 90.3 (4.2) %.
For the molecule `C[C@@H]1O[C@@H](OC[C@H]2O[C@@H](Oc3c(-c4ccc(O)c(O)c4)oc4cc(O)cc(O)c4c3=O)[C@H](O)[C@@H](O)[C@@H]2O)[C@H](O)[C@H](O)[C@H]1O` [Rutin], the “Detection / transport to brain side of HBMEC-BBB model” value in the data set with HBMEC monolayer is reported as “poor transport trough the BBB”.
